US7405236B2, “Indole derivatives comprising an acetylene group” (Hoffman-La Roche Inc., priority 2004, dated 2008)

Columns and labels:
Settings in all cases: receptor binding, SPA
PPARδ = target: T1, PPARδ (Homo sapiens, UniProt Q03181); assay: PPARδ radioligand binding assay (scintillation proximity, GST-PPARδ-LBD)
T1 construct: PPARδ (aa 139 to 442); made in house; host or cells: E. coli BL21(pLysS)
T1 sequence (Q03181 139-441 limits assumed): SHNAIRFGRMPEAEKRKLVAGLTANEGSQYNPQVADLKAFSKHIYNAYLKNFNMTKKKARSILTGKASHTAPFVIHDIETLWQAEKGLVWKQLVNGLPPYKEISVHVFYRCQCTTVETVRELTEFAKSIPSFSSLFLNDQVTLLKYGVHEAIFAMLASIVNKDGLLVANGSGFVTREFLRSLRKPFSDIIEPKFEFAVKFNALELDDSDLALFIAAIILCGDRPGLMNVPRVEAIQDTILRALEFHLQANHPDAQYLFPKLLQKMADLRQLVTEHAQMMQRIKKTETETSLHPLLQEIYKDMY
Text: (§1) Background information on the performed assays can be found in: Nichols J S et al. “Development of a scintillation proximity assay for peroxisome proliferator-activated receptor gamma ligand binding domain”, (1998) Anal. Biochem. 257: 112-119.
(§2) Full-length cDNA clones for humans PPARδ and PPARα and mouse PPARγ were obtained by RT-PCR from human adipose and mouse liver cRNA, respectively, cloned into plasmid vectors and verified by DNA sequencing. Bacterial and mammalian expression vectors were constructed to produce glutathione-s-transferase (GST) and Gal4 DNA binding domain proteins fused to the ligand binding domains (LBD) of PPARδ (aa 139 to 442), PPARγ (aa 174 to 476) and PPARα (aa 167 to 469). To accomplish this, the portions of the cloned sequences encoding the LBDs were amplified from the full-length clones by PCR and then subcloned into the plasmid vectors. Final clones were verified by DNA sequence analysis. […]
PPARδ receptor binding was assayed in HNM10 (50 mM Hepes, pH 7.4, 10 mM NaCl, 5 mM MgCl2, 0.15 mg/ml fatty acid-free BSA and 15 mM DTT). […] Radioligand was added and the reaction incubated at RT for 1 h and scintillation proximity counting performed in the presence of test compounds was determined. All binding assays were performed in 96 well plates and the amount of bound ligand was measured on a Packard TopCount using OptiPlates (Packard). […]

PPARα = target: T2, PPARα (Homo sapiens, UniProt Q07869); assay: PPARα radioligand binding assay (scintillation proximity, GST-PPARα-LBD)
T2 construct: PPARα (aa 167 to 469); made in house; host or cells: E. coli BL21(pLysS)
T2 sequence (Q07869 167-468 limits assumed): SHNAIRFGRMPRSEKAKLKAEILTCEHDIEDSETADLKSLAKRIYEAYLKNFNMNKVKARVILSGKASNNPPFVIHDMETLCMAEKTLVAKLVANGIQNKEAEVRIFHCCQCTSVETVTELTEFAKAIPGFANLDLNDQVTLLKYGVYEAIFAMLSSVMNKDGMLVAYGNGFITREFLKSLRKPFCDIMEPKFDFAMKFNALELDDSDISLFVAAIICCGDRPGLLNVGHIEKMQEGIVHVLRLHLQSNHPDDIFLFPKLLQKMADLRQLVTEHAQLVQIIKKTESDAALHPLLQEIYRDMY
Text: as §1, §2
(§3) PPARα receptor binding was assayed in TKE50 (50 mM Tris-HCl, pH 8, 50 mM KCl, 2 mM EDTA, 0.1 mg/ml fatty acid-free BSA and 10 mM DTT). […] All binding assays were performed in 96 well plates and the amount of bound ligand measured on a Packard TopCount using OptiPlates (Packard). Nonspecific binding was determined in the presence of 10^−4 M unlabelled compound. […]

PPARγ = target: T3, PPARγ (Mus musculus, UniProt P37238); assay: PPARγ radioligand binding assay (scintillation proximity, GST-PPARγ-LBD)
T3 construct: PPARγ (aa 174 to 476); made in house; host or cells: E. coli BL21(pLysS)
T3 sequence (P37238 204-505): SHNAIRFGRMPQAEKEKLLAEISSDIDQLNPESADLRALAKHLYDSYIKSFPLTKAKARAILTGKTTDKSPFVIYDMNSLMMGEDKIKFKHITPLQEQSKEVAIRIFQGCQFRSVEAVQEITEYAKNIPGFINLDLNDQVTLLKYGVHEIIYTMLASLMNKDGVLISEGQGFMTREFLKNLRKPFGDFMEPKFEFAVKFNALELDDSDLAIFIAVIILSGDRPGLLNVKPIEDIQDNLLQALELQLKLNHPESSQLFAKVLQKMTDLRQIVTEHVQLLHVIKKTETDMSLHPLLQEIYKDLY
Text: as §1, §2
as §3, with “PPARγ” for “PPARα”

## O=C(O)Cn1ccc2cc(OCCCC#Cc3ccc(OC(F)(F)F)cc3)ccc21 [Example 6, {5-[5-(4-Trifluoromethoxy-phenyl)-pent-4-ynyloxy]-indol-1-yl}-acetic acid]
PPARδ
  IC50: 301 nM
PPARα
  IC50: 74 nM
PPARγ
  IC50: > 10000 nM

## O=C(O)Cn1ccc2ccc(OCCCC#Cc3cccc(OC(F)(F)F)c3)cc21 [Example 2, {6-[5-(3-Trifluoromethoxy-phenyl)-pent-4-ynyloxy]-indol-1-yl}-acetic acid]
PPARδ
  IC50: 149 nM
PPARα
  IC50: 317 nM
PPARγ
  IC50: > 10000 nM
